Like-named read-outs stand apart in the source and are kept apart here.
What was measured:
[1] = SRB cytotoxicity assay, normal PDL fibroblasts; assay type: cell-based; details: normal periodontal ligament (PDL) fibroblasts, 72 h incubation, 0.1–200 µM range, read-out: Cytotoxicity (as of %Control) IC50 value PDL fibroblasts
Method: (§1) The cancer cell lines were cultured in DMEM supplemented with 10% FBS (Bio Whittaker, Verviers, Belgium), HEPES Buffer (10 mM), gentamicin (50 µg/mL), L-glutamine (100 μg/mL), streptomycin ([…]), penicillin (100 µg/mL), and 4-(2-hydroxyethyl)-1-piperazineethanesulfonic acid (HEPES) Buffer (Sigma, St. Luis, MO, USA). The Sulforhodamine B used was obtained from Santa Cruz Biotechnology, Inc. in Texas, USA. […] Periodontal ligament fibroblasts (PDL) were utilized to assess specific cytotoxicity. Cancer cell lines that have survived offer several benefits. They provide a consistent and uninterrupted source of cells, so bypassing any ethical concerns related to the use of human tissue. Additionally, they are cost-effective. The cytotoxicity levels were assessed using the Sulforhodamine B (SRB) colorimetric assay, provided by Santa Cruz Biotechnology, Inc. in Texas, USA. The Spectro Scan 80D UV-VIS spectrophotometer, manufactured by Sedico Ltd. in Nicosia, Cyprus, was employed for this cytotoxicity screening. The cells were co-incubated with substances or a reference agent at various doses ranging from 5 to 200 μg/mL. […] The reduction in cell viability was analyzed by plotting Dose-response curves and expressing the data as a percentage of the control optical density. The IC50 values were obtained using regression analysis.

[2] = target: T1, human recombinant Glo-I enzyme (rhGlo-I) (Homo sapiens, UniProt Q04760); test: Glyoxalase-I (Glo-I) enzyme inhibition assay; assay type: biochemical; details: for Maximum (descriptive statistics of enzyme inhibition): highest mean inhibition over the tested concentrations; for Maximum (descriptive statistics of enzyme inhibition) / Minimum (descriptive statistics of enzyme inhibition): in % (unit assumed); for IC50: human recombinant Glo-I, triplicates, read-out: IC50 µM ± SD; for Minimum (descriptive statistics of enzyme inhibition): lowest mean inhibition over the tested concentrations
T1 construct: N-terminal Met and 6-His tag (N); purchased R&D Systems; host or cells: E. coli
T1 sequence (Q04760 2-184 limits assumed): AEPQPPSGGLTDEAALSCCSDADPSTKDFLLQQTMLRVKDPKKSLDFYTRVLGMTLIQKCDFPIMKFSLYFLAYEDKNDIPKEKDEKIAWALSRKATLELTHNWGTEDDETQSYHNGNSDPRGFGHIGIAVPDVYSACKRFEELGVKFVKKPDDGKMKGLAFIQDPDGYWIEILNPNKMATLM
Method: Solvents and chemicals were procured from Sigma-Aldrich Co. and Acros (ThermoFisher Scientific, New Jersey, USA). […] The enzyme was obtained from R&D Systems® Corporation in the USA. Synthetic compounds were tested for their inhibitory effects on the enzyme using a 10 mM DMSO stock concentration in triplicates. The manufacturer’s protocol from R & D Systems, Inc. in Minneapolis, MN, USA was followed for the in vitro experiments. The reconstituted Glo-I enzyme (0.5 mg/mL) was thawed after being stored at −70°C in sterile deionized water. […] The monitoring was done at a wavelength of 240 nm for 200 seconds at 37°C. The substrate mixture was freshly concocted with a concentration of 100 mM glutathione and 100 mM methylglyoxal (MG) in assay buffer containing 0.5 M sodium phosphate dibasic/monobasic. It was then left undisturbed at room temperature for 15 minutes […]. The selected compounds for investigation are subsequently produced in testing concentration ranges using a 0.1 M solution of sodium phosphate dibasic/monobasic with a pH range of 7–7.2. The blank contained an assay buffer with MG substrate. The test compounds were combined with human recombinant Glo-I (50 µM) in a 96-well plate to determine their kinetic behavior.

[3] = test system: HCT116 colorectal cancer cell line; test: SRB cytotoxicity assay, HCT116; assay type: cell-based; details: Homo sapiens, HCT-116, 72 h incubation, n = 12, read-out: Cytotoxicity (as of %Control) IC50 value HCT116
Method: as §1

[4] = test system: HT-29 colorectal cancer cell line; test: SRB cytotoxicity assay, HT29; assay type: cell-based; details: Homo sapiens, 72 h incubation, n = 12, read-out: Cytotoxicity (as of %Control) IC50 value HT29
Method: as §1

[5] = test system: A375 human skin cancer cell line; test: SRB cytotoxicity assay, A375; assay type: cell-based; details: A-375, 72 h incubation, n = 12, read-out: Cytotoxicity (as of %Control) IC50 value A375 skin melanoma
Method: as §1

[6] = test system: HeLa uterine cervix adenocarcinoma cell line; test: SRB cytotoxicity assay, HeLa; assay type: cell-based; details: Homo sapiens, 72 h incubation, n = 12, read-out: Cytotoxicity (as of %Control) IC50 value Hela cervix malignancy
Method: as §1

[7] = test system: T47D breast cancer cell line; test: SRB cytotoxicity assay, T47D; assay type: cell-based; details: Homo sapiens, 72 h incubation, n = 12, read-out: Cytotoxicity (as of %Control) IC50 value T47D mammary malignancy
Method: as §1

[8] = test system: Breast cancer cell line MCF7; test: SRB cytotoxicity assay, MCF7; assay type: cell-based; details: Homo sapiens, 72 h incubation, n = 12, read-out: Cytotoxicity (as of %Control) IC50 value MCF7 mammary malignancy
Method: as §1

[9] = test system: CACO2 colorectal cancer cell line; test: SRB cytotoxicity assay, CACO2; assay type: cell-based; details: Homo sapiens, Caco-2, 72 h incubation, n = 12, read-out: Cytotoxicity (as of %Control) IC50 value CACO2
Method: as §1

[10] = test system: Human PC3 prostate cancer cell line; test: SRB cytotoxicity assay, PC3; assay type: cell-based; details: 72 h incubation, n = 12, read-out: Cytotoxicity (as of %Control) IC50 value PC3 prostate malignancy
Method: as §1

[11] = test system: SW620 colorectal cancer cell line; test: SRB cytotoxicity assay, SW620; assay type: cell-based; details: Homo sapiens, SW-620, 72 h incubation, n = 12, read-out: Cytotoxicity (as of %Control) IC50 value SW620
Method: as §1

[12] = read-out: Trial one (%inhibtion)
[13] = read-out: Trial three (%inhibtion)
[14] = read-out: Trial two (%inhibtion)

## C[C@]12CC[C@@H]3c4ccc(O)c(O)c4CC[C@H]3[C@@H]1CC[C@@H]2O [4-hydroxy-estradiol]
[1]
  IC50 at 72 h: > 200 µM
[2]; [12]
  inhibition at 0.09765 µM: 18%
  inhibition at 0.1953 µM: 57.6%
  inhibition at 0.3906 µM: 69.7%
  inhibition at 0.7812 µM: 80.8%
  inhibition at 1.562 µM: 99.8%
  inhibition at 3.125 µM: 93%
  inhibition at 6.25 µM: 95.6%
  inhibition at 12.5 µM: 99.8%
  inhibition at 25 µM: 102%
  inhibition at 50 µM: 102%
[2]; [13]
  inhibition at 0.09765 µM: 20.6%
  inhibition at 0.1953 µM: 59.2%
  inhibition at 0.3906 µM: 66%
  inhibition at 0.7812 µM: 81.3%
  inhibition at 1.562 µM: 94%
  inhibition at 3.125 µM: 95.6%
  inhibition at 6.25 µM: 96.1%
  inhibition at 12.5 µM: 99.3%
  inhibition at 25 µM: 104%
  inhibition at 50 µM: 101%
[2]; [14]
  inhibition at 0.09765 µM: 21.7%
  inhibition at 0.1953 µM: 55.5%
  inhibition at 0.3906 µM: 67.1%
  inhibition at 0.7812 µM: 82.9%
  inhibition at 1.562 µM: 91.4%
  inhibition at 3.125 µM: 96.1%
  inhibition at 6.25 µM: 97.7%
  inhibition at 12.5 µM: 98.7%
  inhibition at 25 µM: 102%
  inhibition at 50 µM: 101%
[2]
  Maximum (descriptive statistics of enzyme inhibition): 102.5
  IC50: 0.22 µM
  Minimum (descriptive statistics of enzyme inhibition): 20.07
[3]
  IC50: 124 ± 7.8 µM
[4]
  IC50: 118 ± 4.17 µM
[5]
  IC50: 47.1 ± 1.9 µM
[6]
  IC50: 29.8 ± 4.74 µM
[7]
  IC50: 51.5 ± 5.2 µM
[8]
  IC50: 139.8 ± 1.13 µM
[9]
  IC50: 107 ± 4.77 µM
[10]
  IC50: 82.2 ± 8.56 µM
[11]
  IC50: 142 ± 16.5 µM

## O=c1cc(O)cc(/C=C/c2ccc(O)c(O)c2)o1 [Hispidin]
[1]
  IC50 at 72 h: > 200 µM
[2]; [12]
  inhibition at 3.125 µM: 10.9%
  inhibition at 6.25 µM: 19.1%
  inhibition at 12.5 µM: 29.5%
  inhibition at 25 µM: 47.9%
  inhibition at 50 µM: 53.5%
[2]; [13]
  inhibition at 3.125 µM: 20.2%
  inhibition at 6.25 µM: 24%
  inhibition at 12.5 µM: 34.3%
  inhibition at 25 µM: 43.5%
  inhibition at 50 µM: 54.5%
[2]; [14]
  inhibition at 3.125 µM: 4.72%
  inhibition at 6.25 µM: 10%
  inhibition at 12.5 µM: 19.2%
  inhibition at 25 µM: 32.4%
  inhibition at 50 µM: 44.3%
[2]
  Maximum (descriptive statistics of enzyme inhibition): 50.76
  IC50: 36.4 ± 16.1 µM
  Minimum (descriptive statistics of enzyme inhibition): 11.95
[3]
  IC50: 198 ± 12.2 µM
[4]
  IC50: 82.75 ± 0.78 µM
[5]
  IC50: 98.9 ± 9 µM
[6]
  IC50: 122 ± 1.34 µM
[7]
  IC50: 52.6 ± 0.69 µM
[8]
  IC50: 384 ± 7.57 µM
[9]
  IC50: 74.3 ± 1.13 µM
[10]
  IC50: 139 ± 13.6 µM
[11]
  IC50: 34.3 ± 6.52 µM

## O=C1c2ccc(O)c(O)c2C(=O)c2c(O)ccc(O)c21 [Quinalizarin]
[1]
  IC50 at 72 h: > 200 µM
[2]; [12]
  inhibition at 3.125 µM: 22.8%
  inhibition at 6.25 µM: 32.6%
  inhibition at 12.5 µM: 37.2%
  inhibition at 25 µM: 42.7%
  inhibition at 50 µM: 55.5%
[2]; [13]
  inhibition at 3.125 µM: 28.6%
  inhibition at 6.25 µM: 33.7%
  inhibition at 12.5 µM: 41.8%
  inhibition at 25 µM: 43.6%
  inhibition at 50 µM: 55.3%
[2]; [14]
  inhibition at 3.125 µM: 19.5%
  inhibition at 6.25 µM: 28.6%
  inhibition at 12.5 µM: 35.4%
  inhibition at 25 µM: 46.6%
  inhibition at 50 µM: 59.9%
[2]
  Maximum (descriptive statistics of enzyme inhibition): 56.90
  IC50: 33.4 ± 12.6 µM
  Minimum (descriptive statistics of enzyme inhibition): 23.66
[3]
  IC50: 72.2 ± 5.7 µM
[4]
  IC50: 144 ± 15.6 µM
[5]
  IC50: 48.6 ± 1.8 µM
[6]
  IC50: 85.51 ± 0.44 µM
[7]
  IC50: 37.7 ± 4.78 µM
[8]
  IC50: 33.2 ± 0.78 µM
[9]
  IC50: 109 ± 9.26 µM
[10]
  IC50: 143.1 ± 0.18 µM
[11]
  IC50: 40.7 ± 2.21 µM

From paper PMC12527173, “Cytotoxic, anti-inflammatory, antioxidant, and anti-glyoxalase-I evaluation of chelating substances: In silico and in vitro study” (PLOS One, 2025)
